# Literature values, collected in publication PMC8004929, “Whole-Body Pharmacokinetics and Physiologically Based Pharmacokinetic Model for Monomethyl Auristatin E (MMAE)” (Journal of Clinical Medicine, 2021).
# Square brackets hold non-standard residues; d marks the D form. Peptide text beside a SMILES is read from it. * marks the point of attachment. Dolaproine = CO[C@@H]([C@@H]1CCCN1)[C@@H](C)C(=O)O; Dil = CC[C@H](C)[C@H](NC)[C@@H](CC(=O)O)OC; X1 = C[C@@H](N*)[C@@H](O)c1ccccc1; NMeV = CN[C@H](C(=O)O)C(C)C
# Columns and labels:
# tubulin = settings: cited from earlier work
# Source text: Table 1 A glossary of literature-derived and estimated parameters used for the MMAE PBPK model. | column: Value || Physiological parameters for mice were obtained from our previously published PBPK model. Radius of the tumor blood capillary ( Rcap ), average distance between two capillaries ( Rkrough ), tumor void volume for MMAE ( ε ), P, D, and efflux rate of MMAE from the cells ( kout ) were obtained from the literature.
# [1] = mice, assumed from reported plasma protein binding; cited from earlier work
# Source text: Table 1 A glossary of literature-derived and estimated parameters used for the MMAE PBPK model. | column: Value || Each tissue compartment was further divided into the vascular, endothelial cell, interstitial, and cellular sub-compartments, and vascular space was divided into plasma and blood cells, as shown in Figure 1b. We aimed to make the sub-compartment division the same as our previously published platform antibody PBPK model, and thus, one can easily connect MMAE and an antibody PBPK model to build an ADC PBPK model. The rapid distribution of MMAE between plasma, endothelial cells, and interstitial space was assumed, and thus, the distribution rate between these compartments was set as a valu ... || Plasma protein binding plays a vital role in tissue distribution of small molecule drugs. […] Based on the reported mice data, fu,p was assumed to be 0.2, and it was used as a concentration-independent parameter in the PBPK model. Of note, species-dependence of fraction unbound should be considered when further scaling up the current MMAE PBPK model to different species. Based on free hormone hypothesis, it was assumed that ...
# [2] = cited from earlier work
# Source text: The PBPK model included 16 tissues and a tumor compartment, and all of them were connected via blood flow and arranged anatomically. The tissue compartments included blood, lung, heart, kidney, muscle, skin, liver, brain, adipose, thymus, bone, small intestine, large intestine, spleen, pancreas, and other (i.e., carcass). All the other tissues, except those mentioned, were lumped into the ‘other’ compartment. The arterial blood to each organ was delivered by the efferent blood supplied from the lung, which perfused to each organ and t ... || It is reported that the elimination (metabolism and excretion) of MMAE is mainly through CYP3A4-mediated metabolism, biliary/fecal excretion, or urinary excretion. About 80% of MMAE excretes via feces, and only 6% excretes via urine. Therefore, we assumed that MMAE was eliminated only via metabolism and biliary/fecal excretion from the liver. […] For the derivation of CLint based on in vitro data, the CLint, vitro were estimated using human hepatocyte (3 µL/min/10^6 cells) and human ...
# [3] = bile-duct cannulated rat; cited from earlier work
# Procedure: The scaling factors used were 135 ± 10 (10^6 cells/g) for hepatocytes and 41.9 ± 24.5 (mg/g) for microsome studies. Metabolic CL and non-metabolic (mostly biliary) CL were assumed to account for 40% and 60% of total CL. This assumption is based on a human mass balance study and a bile-duct cannulated rat study, which reported that ≈60% of MMAE is excreted unchanged in the bile. As such, the CLint extrapolated from in vitro study was 109–126 mL/min (hepatocyte) and 121–462 mL/min (microsome). The CLint approximated from our in vivo data was 146 mL/min using the convent ...
# P-glycoprotein = settings: cited from earlier work
# Source text: Concentration data were not obtained for gastrointestinal tracts and thymus, and thus, an assumption was made when calculating KP values for these tissues based on the result of a quantitative whole-body autoradiography study of trastuzumab-vc-MMAE in rats. The study observed persistent MMAE radioactivity in tissues with rapidly dividing cells such as GI epithelia, bone marrow, spleen, and thymus. Accordingly, apparent KP in GI tracts and thymus were assumed to be the same as in spleen, and they were adjusted for the fractional cellular volume of each tissue. KP values were >1 in all tis ... || The PBPK model of MMAE presented here can further be used to assess drug–drug interactions of MMAE containing ADCs. In vivo and in vitro studies indicate that MMAE is a substrate of CYP3A and P-glycoprotein [34]. As such, the polymorphism of CYP3A and P-glycoprotein may affect the PK of MMAE, and consequently the efficacy and toxicity of MMAE-conjugated ADCs. As such, the MMAE PBPK model can serve as a tool to explore drug interactions of ADCs.
# [4] = cited from earlier work; remark: listed apart in the source
# Procedure: There are some limitations of our study. First, only one dose level of MMAE was used to build the PBPK model. However, the current 0.1 mg/kg MMAE dose can be high enough to saturate the target, and thus, linear PK can be assumed. […] As more data at lower dose levels become available, the PBPK model can be further refined to elaborate the MMAE–tubulin interaction. Second, the PK profile of free M ...
compound,measurement,setting,value
"CC[C@H](C)[C@@H]([C@@H](CC(=O)N1CCC[C@H]1[C@H](OC)[C@@H](C)C(=O)N[C@H](C)[C@@H](O)c1ccccc1)OC)N(C)C(=O)[C@@H](NC(=O)[C@@H](NC)C(C)C)C(C)C [MMAE, Monomethyl auristatin E] (H-[NMeV]V[Dil][Dolaproine]-X1)","koff, first-order dissociation rate constant between MMAE–tubulin complex",tubulin; assumed,0.000151 s⁻¹
same,Kd,tubulin; read-out: equilibrium dissociation rate (KD) of MMAE for free tubulin,291 nM
same,"fu,p, fraction unbound in plasma",[1],0.8
same,excretion via feces,[2],About 80%
same,excretion via urine,[2],6%
same,renal excretion,[2],< 10%
same,MMAE excreted unchanged in the bile,[3],≈ 60%
same,substrate of P-glycoprotein,P-glycoprotein,substrate
same,dose that induced mortality,"[4]; rats, single dose",> 0.116 mg/kg
same,single-dose no-observed-adverse-effect level (NOAEL),[4]; rats,0.01 mg/kg
same,contribution of free MMAE to tissue total MMAE exposure following ADC administration,[4]; ref in-house data,< 20%
